{
  "source": "patent US9211288B2",
  "about": "(priority 2012, dated 2015)",
  "key": {"[1]": {"test_system": "acetylcholine levels in hippocampus", "assay": "Microdialysis: acetylcholine levels in ventral hippocampus of freely moving Sprague Dawley rats (Examples 3 and 4)", "format": "in vivo, rat", "description": "Adult, male Sprague Dawley rats were used in the experiments. The rats were anesthetized before surgery. The animals were placed in a stereotaxic frame (Kopf instruments, USA), and CMA12 guide cannulas (CMA Microdialysis, Sweden) were implanted aiming into the ventral hippocampus. Coordinates for the tips of the probes were AP=−5.3 mm to bregma, lateral (ML)=−4.8 mm to midline and ventral=−8.0 mm to dura (Paxinos and Watson).\nGalanthamine, the chemical name of which is (4aS,6R,8aS)-4a,5,9,10,11,12-hexahydro-3-methoxy-11-methyl-6H-benzofuro[3a,3,2-ef][2]benzazepin-6-ol, was administered as the HBr salt. Vortioxetine was administered as the HBr salt. Vortioxetine and galantamine were prepared in 0.9% saline. Vortioxetine was administered subcutaneously at 10 mg/kg and galantamine was administered subcutaneously at 0.3 mg/kg and 1.0 mg/kg.\nThe day before the experiment, a microdialysis probe (CMA/12, 4 mm, PAES, MWKO 100 kDa) was inserted into the respective guide cannula in the awake rats. […] At the day of the experiment, samples were collected in 30 min intervals prior to administration to define the baseline. The data is presented as percentage of baseline within the same animal. Significance is defined as p<0.05. Animals received treatments according to experimental protocol and samples were collected at 30 minutes intervals.\nThe concentration of acetylcholine in the samples was determined using a Waters Acquity HPLC system equipped with a Sunshell RP-Aqua 2.1×100 mm, 2.6 um particle column fitted with a Waters Quattro Premier XE triple quadrupole mass spectrometer operating in the MS/MS mode. Components were separated using an isocratic flow of eluent A (100 mM ammonium acetate in milliQ water).\nInjection of galantamine was 60 minutes prior to the injection of vortioxetine."}, "[2]": {"test_system": "rats with scopolamine-induced memory impairment", "assay": "Novel object recognition task (NOR) in rats with scopolamine-induced memory impairment (Example 5)", "format": "in vivo, rat", "protocol": "In a habituation phase, rats are allowed to explore the test room environment and two objects which differ in shape, colour and texture. In the test phase, one of the objects is exchanged so that the rats are exposed to one novel object and one familiar object. The time spent exploring the novel and the familiar object is recorded following the administration of test compounds.\nSprague-Dawley rats were used\nOne day 1 and day 2 of the experiment the rats received two habituation sessions to the test room environment including two objects (familiar objects). Each session lasted 6 minutes. […] At the test day, five groups of rats received a third habituation test (familiarization trial) after which they were removed from the test apparatus and one of the objects was replaced with a novel object. Four hours later, the rats were put back in the test apparatus (test phase) and the time used exploring of the familiar and the novel object was recorded.\nThe numbers in parenthesis indicate the number of rats in each group"}, "[3]": {"test_system": "patients with major depressive disorder (MDD)", "conditions": "cited from earlier work"}, "5-HT3-receptor": {"biological_target": "T1, 5-HT3-receptor (Rattus norvegicus, UniProt P35563)", "T1 construct": "The receptor occupancy in rats following administration of vortioxetine has been investigated; host or cells: rat, in vivo / ex vivo occupancy", "T1 sequence (P35563 24-483)": "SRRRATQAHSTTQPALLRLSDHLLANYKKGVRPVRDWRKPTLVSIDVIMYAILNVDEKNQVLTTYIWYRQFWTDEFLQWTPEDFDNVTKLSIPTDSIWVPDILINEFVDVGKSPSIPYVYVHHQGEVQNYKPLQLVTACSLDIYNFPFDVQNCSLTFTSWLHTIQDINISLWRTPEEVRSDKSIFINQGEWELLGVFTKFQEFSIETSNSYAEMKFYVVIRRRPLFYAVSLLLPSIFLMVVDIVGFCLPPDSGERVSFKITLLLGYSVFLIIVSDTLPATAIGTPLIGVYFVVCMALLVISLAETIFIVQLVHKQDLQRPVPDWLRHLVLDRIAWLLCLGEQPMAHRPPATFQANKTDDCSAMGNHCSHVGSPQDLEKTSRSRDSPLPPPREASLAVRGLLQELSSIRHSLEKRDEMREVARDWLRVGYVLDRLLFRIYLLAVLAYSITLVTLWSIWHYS", "conditions": "rats; vortioxetine dosed at 5-10 mg/kg; cited from earlier work"}, "5-HT1B-receptor": {"biological_target": "T2, 5-HT1B-receptor (Rattus norvegicus, UniProt P28564)", "T2 construct": "The receptor occupancy in rats following administration of vortioxetine has been investigated; host or cells: rat, in vivo / ex vivo occupancy", "T2 sequence (P28564 whole entry)": "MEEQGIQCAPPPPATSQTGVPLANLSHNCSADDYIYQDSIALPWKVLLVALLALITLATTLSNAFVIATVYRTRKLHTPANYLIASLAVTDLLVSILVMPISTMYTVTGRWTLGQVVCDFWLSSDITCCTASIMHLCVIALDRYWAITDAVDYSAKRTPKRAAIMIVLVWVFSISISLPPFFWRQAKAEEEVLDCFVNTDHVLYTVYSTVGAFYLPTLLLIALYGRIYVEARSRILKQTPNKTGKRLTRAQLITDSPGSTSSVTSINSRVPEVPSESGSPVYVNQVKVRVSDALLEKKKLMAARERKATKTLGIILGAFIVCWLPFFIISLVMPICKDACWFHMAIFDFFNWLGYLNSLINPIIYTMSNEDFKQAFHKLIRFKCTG", "conditions": "rats; vortioxetine dosed at 5-10 mg/kg; cited from earlier work"}, "serotonin transporter [4]": {"biological_target": "T3, serotonin transporter (Rattus norvegicus, UniProt P31652)", "T3 construct": "The receptor occupancy in rats following administration of vortioxetine has been investigated; host or cells: rat, in vivo / ex vivo occupancy", "T3 sequence (P31652 whole entry)": "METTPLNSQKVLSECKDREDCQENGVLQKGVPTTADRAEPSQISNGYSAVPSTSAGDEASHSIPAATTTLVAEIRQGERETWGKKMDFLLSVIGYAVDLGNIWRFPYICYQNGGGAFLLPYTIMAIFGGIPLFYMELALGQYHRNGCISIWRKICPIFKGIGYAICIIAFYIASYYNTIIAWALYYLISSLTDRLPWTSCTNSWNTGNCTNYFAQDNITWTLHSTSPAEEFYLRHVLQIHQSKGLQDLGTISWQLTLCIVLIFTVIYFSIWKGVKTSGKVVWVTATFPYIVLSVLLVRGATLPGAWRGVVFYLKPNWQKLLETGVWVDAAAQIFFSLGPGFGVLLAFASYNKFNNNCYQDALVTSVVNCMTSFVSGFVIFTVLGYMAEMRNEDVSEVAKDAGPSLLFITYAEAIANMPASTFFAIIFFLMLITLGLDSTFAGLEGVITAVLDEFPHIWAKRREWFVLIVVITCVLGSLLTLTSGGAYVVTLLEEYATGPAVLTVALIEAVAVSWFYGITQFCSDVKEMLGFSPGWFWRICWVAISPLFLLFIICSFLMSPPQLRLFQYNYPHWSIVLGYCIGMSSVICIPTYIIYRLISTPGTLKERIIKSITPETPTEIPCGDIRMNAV", "conditions": "rats; vortioxetine dosed at 5-10 mg/kg; cited from earlier work"}, "[5]": {"format": "in vivo", "conditions": "rat", "text": "In addition, blood samples were taken from each animal to measure the plasma level of the active ingredients."}, "[6]": {"test_system": "patients suffering from MDD", "conditions": "long-term study; cited from earlier work"}, "[7]": {"conditions": "plasma; cited from earlier work"}, "serotonin transporter [8]": {"biological_target": "T4, serotonin transporter (Homo sapiens, UniProt P31645)", "T4 construct": "The serotonin transporter occupancy in humans was investigated; host or cells: human subjects, in vivo", "T4 sequence (P31645 whole entry)": "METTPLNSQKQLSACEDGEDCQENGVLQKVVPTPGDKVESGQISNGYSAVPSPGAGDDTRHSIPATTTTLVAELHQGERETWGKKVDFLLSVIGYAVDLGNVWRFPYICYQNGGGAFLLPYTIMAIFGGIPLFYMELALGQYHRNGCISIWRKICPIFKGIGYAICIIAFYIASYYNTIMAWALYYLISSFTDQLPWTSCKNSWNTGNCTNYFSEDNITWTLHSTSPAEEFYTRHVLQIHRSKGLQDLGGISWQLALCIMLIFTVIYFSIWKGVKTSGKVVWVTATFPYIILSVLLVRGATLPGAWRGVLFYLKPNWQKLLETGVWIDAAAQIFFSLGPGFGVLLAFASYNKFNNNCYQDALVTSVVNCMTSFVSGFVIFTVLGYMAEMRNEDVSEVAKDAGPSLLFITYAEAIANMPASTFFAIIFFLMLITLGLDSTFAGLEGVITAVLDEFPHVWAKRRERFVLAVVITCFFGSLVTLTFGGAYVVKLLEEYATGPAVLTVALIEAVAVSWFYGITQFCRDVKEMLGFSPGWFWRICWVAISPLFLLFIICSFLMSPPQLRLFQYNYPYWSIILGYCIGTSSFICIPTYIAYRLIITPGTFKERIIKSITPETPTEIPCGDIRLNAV", "conditions": "humans, cited from earlier work"}, "[9]": {"test_system": "acetylcholine levels in ventral hippocampus", "conditions": "donepezil 1 mg/kg ip and vehicle; compared to vehicle+vehicle", "description": "Adult, male, Wistar rats were used for the experiments. The rats were anesthetized before surgery. Each animal was placed in a stereotaxic frame (Kopf Instruments, USA) and an incision was made on the top of the skull. A microdialysis probe with a 4 mm^2 exposed surface (polyacrylnitril membrane, Brainlink, the Netherlands) was implanted into the ventral hippocampus. […] The probes were attached to the skull with stainless steel screws and dental cement. Experiments started after one day of recovery.\nVortioxetine HBr was prepared in 10% 2-hydroxypropyl-β-cyclodextrin at 0, 5 or 10 mg/ml.\nAfter two hours of prestabilisation, samples (30 μl) were collected and stored in 20 mM formic acid and 0.04% ascorbic acid (10 μl).\nThe concentration of acetylcholine in the samples was determined by HLPC fitted with tandem mass spectroscopy (MS/MS) for detection using acetyl-β-methyl-choline as internal standard. Chromatographic separation was performed on a reversed phase Phenomenex Synergi Max-RP column (2.0×150 mm, particle size 4 μm) at 50° C. Components were separated using an isocratic flow of eluent A (20 mM ammonium acetate, 5% acetonitril and 0.3% trifluoroacetic acid) at a flow rate of 0.25 ml/min. […]\nThe average of three pre-administration samples was set to 100%. […] All post-administration samples were expressed as a percentage of basal level within the same subject. […]"}},
  "note": "Read-outs that look alike come from different tables or passages of the source.",
  "data": [
    {"smiles": "COc1ccc2c3c1O[C@H]1C[C@@H](O)C=C[C@@]31CCN(C)C2", "note": "[galantamine, (4aS,6R,8aS)-4a,5,9,10,11,12-hexahydro-3-methoxy-11-methyl-6H-benzofuro[3a,3,2-ef][2]benzazepin-6-ol]", "values": [
      {"measurement": "acetylcholine levels in hippocampus", "setting": "[1]; galantamine 0.3 and 1.0 mg/kg sc and vehicle", "value": "dose dependent, significant increase"}
    ]},
    {"smiles": "CN1[C@@H]2C[C@@H](OC(=O)[C@H](CO)c3ccccc3)C[C@H]1[C@@H]1O[C@@H]12", "note": "[scopolamine]", "values": [
      {"measurement": "effect on short-term memory (recognition index, RI)", "setting": "[2]; scopolamine 0.5 mg/kg ip 40 minutes prior to familiarization trial, versus saline, p<0.001", "value": "impairs short-term memory"}
    ]},
    {"smiles": "Cc1ccc(Sc2ccccc2N2CCNCC2)c(C)c1", "note": "[Vortioxetine, 1-[2-(2,4-dimethyl-phenylsulfanyl)-phenyl]-piperazine]", "values": [
      {"measurement": "changes in clinical laboratory results, vital signs, weight, or ECG parameters", "setting": "[3]; human, in vivo", "value": "no clinically relevant changes"},
      {"measurement": "treatment of depressive and anxious symptoms versus placebo", "setting": "[3]; patients with MDD, six weeks", "value": "separates significantly from placebo"},
      {"measurement": "occupancy at 5-HT3-receptor", "setting": "5-HT3-receptor", "value": "almost full occupancy"},
      {"measurement": "acetylcholine levels in hippocampus", "setting": "[1]; vortioxetine 10 mg/kg sc", "value": "significant increase"},
      {"measurement": "occupancy at 5-HT1B-receptor", "setting": "5-HT1B-receptor", "value": "almost full occupancy"},
      {"measurement": "reversal of scopolamine-induced memory impairment (recognition index, RI)", "setting": "[2]; scopolamine 0.5 mg/kg + vortioxetine 5 mg/kg ip 20 minutes prior to familiarization trial", "value": "neither vortioxetine at 5 mg/kg nor donepezil at 0.5 mg/kg is able to reverse this impairment"},
      {"measurement": "occupancy at serotonin transporter", "setting": "serotonin transporter [4]", "value": "almost full occupancy"},
      {"measurement": "Vortioxetine in plasma", "setting": "[5]; vortioxetine 10 mg/kg sc + donepezil 0.3 mg/kg ip", "value": 317, "unit": "ng/mL"},
      {"measurement": "Vortioxetine in plasma", "setting": "[5]; vortioxetine 10 mg/kg sc + donepezil 1 mg/kg ip", "value": 317, "unit": "ng/mL"},
      {"measurement": "prevention of relapse", "setting": "[6]", "value": "effective in preventing relapse"},
      {"measurement": "half-life in humans", "setting": "[7]", "value": "approximately 57 hours"},
      {"measurement": "serotonin transporter occupancy", "setting": "serotonin transporter [8]; 5 mg/day", "value": 51, "unit": "%"},
      {"measurement": "serotonin transporter occupancy", "setting": "serotonin transporter [8]; 10 mg/day", "value": 63, "unit": "%"},
      {"measurement": "serotonin transporter occupancy", "setting": "serotonin transporter [8]; 20 mg/day", "value": 90, "unit": "%"}
    ]},
    {"smiles": "COc1cc2c(cc1OC)C(=O)C(CC1CCN(Cc3ccccc3)CC1)C2", "note": "(stereo not drawn) [Donepezil]", "values": [
      {"measurement": "acetylcholine levels in ventral hippocampus", "setting": "[9]", "value": "significantly increased"}
    ]},
    {"smiles": "CCN(C)C(=O)Oc1cccc([C@H](C)N(C)C)c1", "note": "[rivastigmine, (S)—N-ethyl-N-methyl-3-[1-(dimethylamino)ethyl]-phenyl carbamate]", "values": [
      {"measurement": "acetylcholine levels in hippocampus", "setting": "[1]; rivastigmine 0.2 and 0.6 mg/kg sc and vehicle", "value": "dose-dependently and significantly increases"}
    ]}
  ]
}
